The values that follow are results of earlier work, collected in patent US7285553B2, “Serotonergic 5HT7 receptor compounds for treating ocular and CNS disorders” (Alcon Manufacturing, Ltd., priority 1998, dated 2007).

Like-named read-outs stand apart in the source and are kept apart here.

Data set [1] relates to IOP. To be noted: glaucomatous monkeys.
Another data set has as its system rabbit eye. The settings on record: for IOP: rabbits; for intraocular pressure in the anterior chamber of the eye: topically applied to the rabbit eye.
For data set [2], the system named is IOP.
For data set [3], the system named is IOP. The source holds these as a separate data set.

For the compound `COc1ccccc1N1CCN(CCCNc2c(C)c(=O)n(C)c(=O)n2C)CC1` [5-methylurapidil], in the data set with IOP [1], the IOP result is “lowered IOP”.

Take `CCCN(CCC)C1CCc2cccc(O)c2C1` (centres unmarked) [8-hydroxy DPAT]: the IOP result in the data set on rabbit eye is “lower IOP”.

Regarding `NCCc1c[nH]c2ccc(C(N)=O)cc12` [Example 5-CT, 5-carboxamidotryptamine], the “intraocular pressure in the anterior chamber of the eye” value in the data set on rabbit eye is listed as “raise intraocular pressure”.

As for `NCCc1c[nH]c2ccc(O)cc12` [Example 5HT, 5-hydroxy tryptamine], the “intraocular pressure in the anterior chamber of the eye” value in the data set on rabbit eye was “raise intraocular pressure”. Besides, in the data set with IOP [2] (intracamerally), the IOP entry is recorded as “raised IOP” and the blood-aqueous barrier entry was “caused breakdown of the blood-aqueous barrier”. Besides, the IOP entry with IOP [2] (topically applied) is on record as “lowers IOP”.

In the case of `O=C(c1ccc(F)cc1)C1CCN(CCn2c(=O)[nH]c3ccccc3c2=O)CC1` [Ketanserin], the IOP result in the data set on rabbit eye and in the data set with IOP [3] (man) was “lowers IOP” each time.

As for `c1ccc2c(c1)OC[C@H](CNCCCOc1ccc3c(c1)OCO3)O2` [MKC-242], in the data set with rabbit eye, the IOP entry is recorded as “lower IOP”.

Consider `CC[C@@H](CO)NC(=O)[C@@H]1C=C2c3cccc4c3c(cn4C)C[C@H]2N(C)C1` [Methysergide], for which, in the data set with rabbit eye, the IOP result is given as “lowered IOP”.

`COc1cccc(CCc2ccccc2OCC(CN(C)C)OC(=O)CCC(=O)O)c1` (centres unmarked) [Saprogrelate]: the IOP entry in the data set with rabbit eye (dosed topically or orally) is “lowers IOP”; in the data set on IOP [3] (man, dosed topically or orally) it was “lowers IOP”.

In the case of `CNCCC(Oc1ccc(C(F)(F)F)cc1)c1ccccc1` (centres unmarked) [fluoxetine], the IOP entry with IOP [3] (human subjects, oral administration) is on record as “raises IOP”.
